Source: patent US8962627B2, “Oxime derivatives and their use as allosteric modulators of metabotropic glutamate receptors” (Prestwick Chemical, Inc., priority 2009, dated 2015)

How the values were obtained:
[1] = target: T1, human mGluR4 transiently over-expressed in HEK-293 cells (Homo sapiens, UniProt Q14833); assay: Human mGluR4 positive allosteric modulator evaluation using Ca++ functional assay; type: cell-based; conditions: HEK-293 cells co-transfected with hmGluR4 and chimeric G protein; EC10 glutamate; intracellular calcium (Fluo4AM); read-out: mean EC50 of agonist/positive allosteric modulator activity on mGluR4
T1 construct: expressed in transfected cells; host or cells: HEK-293 cells, transient co-transfection by electroporation
Outline: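 HEK-293 cells transiently co-transfected with hmGluR4 and a chimeric G protein, loaded with Fluo4AM; Ca2+ fluorescence read 485/525 nm. Compound alone read 60 s, then EC10 glutamate added and read 60 s more. EC50 fitted from 6–9 concentrations, duplicate, two independent runs.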

T1 sequence (Q14833 33-912): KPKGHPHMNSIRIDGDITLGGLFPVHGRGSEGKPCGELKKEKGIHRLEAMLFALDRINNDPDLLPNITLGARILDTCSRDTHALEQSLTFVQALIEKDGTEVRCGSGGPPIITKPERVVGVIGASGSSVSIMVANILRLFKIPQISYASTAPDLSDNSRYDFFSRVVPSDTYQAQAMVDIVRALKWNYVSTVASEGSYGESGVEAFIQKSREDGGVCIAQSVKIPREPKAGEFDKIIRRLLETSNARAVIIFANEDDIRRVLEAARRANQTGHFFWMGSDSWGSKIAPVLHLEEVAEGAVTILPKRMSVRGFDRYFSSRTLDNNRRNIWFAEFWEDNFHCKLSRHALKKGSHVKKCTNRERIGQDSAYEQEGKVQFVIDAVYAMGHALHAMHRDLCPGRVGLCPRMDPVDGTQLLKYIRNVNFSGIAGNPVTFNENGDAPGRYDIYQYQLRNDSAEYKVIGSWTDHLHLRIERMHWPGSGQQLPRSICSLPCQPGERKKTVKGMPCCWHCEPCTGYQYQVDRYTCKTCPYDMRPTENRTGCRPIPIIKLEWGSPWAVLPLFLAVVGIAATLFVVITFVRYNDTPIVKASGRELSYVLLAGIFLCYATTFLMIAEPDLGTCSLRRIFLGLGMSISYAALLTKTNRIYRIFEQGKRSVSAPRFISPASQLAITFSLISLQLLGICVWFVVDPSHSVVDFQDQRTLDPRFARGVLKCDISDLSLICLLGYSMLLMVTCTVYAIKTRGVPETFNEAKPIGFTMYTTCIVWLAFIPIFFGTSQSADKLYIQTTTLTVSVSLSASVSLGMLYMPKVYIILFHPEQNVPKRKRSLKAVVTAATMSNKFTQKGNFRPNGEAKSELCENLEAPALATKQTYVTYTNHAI

SMILES	EC50 [1] [µM]	melting point
N#Cc1ccc2c(=NO)cc(-c3cc4ccccc4cn3)oc2c1 [Example 58, 7-cyano-2-isoquinolin-3-yl-chromen-4-one oxime]	< 5	279 to 281 °C
COc1ccc2oc(-c3cc4ccccc4cn3)cc(=NO)c2c1 (mixture of isomers) [Example 42, 2-isoquinolin-3-yl-6-methoxy-chromen-4-one oxime]	< 5	250 to 255 °C
Cl.ON=c1cc(-c2cc3cccn3cn2)oc2ccc(OCCN3CCCCC3)cc12 [Example 88, 6-(2-Piperidin-1-yl-ethoxy)-2-pyrrolo[1,2-c]pyrimidin-3-yl-chromen-4-one oxime, hydrochloride]	< 5	> 255 °C (dec.)
Cl.ON=c1cc(-c2cc3sccc3cn2)oc2ccc(OCCCc3ccncc3)cc12 [Example 134, 6-(3-Pyridin-4-yl-propoxy)-2-thieno[3,2-c]pyridin-6-yl-chromen-4-one oxime, hydrochloride]	< 1	236 to 238 °C
Cl.ON=c1cc(-c2cc3cccn3cn2)oc2ccc(OCCN3CCC(O)C3)cc12 (stereo not shown) [Example 98, 6-[2-(3-hydroxy-pyrrolidin-1-yl)-ethoxy]-2-pyrrolo[1,2-c]pyrimidin-3-yl-chromen-4-one oxime, hydrochloride]	< 1	> 230 °C (dec.)
ON=c1cc(-c2cc3ccccc3cn2)oc2ccc(Br)cc12 (mixture of isomers) [Example 4, 6-bromo-2-isoquinolin-3-yl-chromen-4-one oxime]	< 1	266 to 269 °C
ON=c1cc(-c2cc3ccccc3cn2)oc2cc(C#Cc3cccc(O)c3)ccc12 (mixture of isomers) [Example 30, 7-(3-hydroxyphenyl)ethynyl-2-isoquinolin-3-yl-chromen-4-one oxime]	< 5	255 to 259 °C
ON=c1cc(-c2cc3cccn3cn2)oc2ccc(OCCc3cccc(F)c3)cc12 [Example 138, 6-[2-(3-Fluoro-phenyl)-ethoxy]-2-pyrrolo[1,2-c]pyrimidin-3-yl-chromen-4-one, oxime]	< 1	205 to 207 °C
COCCOc1cccc(C#Cc2ccc3c(=NO)cc(-c4cc5ccccc5cn4)oc3c2)c1 (mixture of isomers) [Example 53, 2-Isoquinolin-3-yl-7-[3-(2-methoxy-ethoxy)-phenylethynyl]-chromen-4-one oxime]	< 1	155 to 160 °C
Cl.ON=c1cc(-c2cc3sccc3cn2)oc2ccc(OCCN3CCOCC3)cc12 [Example 127, 6-(2-Morpholin-4-yl-ethoxy)-2-thieno[3,2-c]pyridin-6-yl-chromen-4-one oxime, hydrochloride]	< 1	> 230 °C (dec.)
CN1CCCN(CCOc2ccc3oc(-c4cc5cccn5cn4)cc(=NO)c3c2)CC1.Cl.Cl [Example 94, 6-[2-(4-methyl-[1,4]diazepan-1-yl)-ethoxy]-2-pyrrolo[1,2-c]pyrimidin-3-yl-chromen-4-one oxime, dihydrochloride]	< 1	> 210 °C (dec.)
COc1cccc(C#Cc2ccc3c(=NO)cc(-c4cc5ccccc5cn4)oc3c2)c1 (mixture of isomers) [Example 28, 2-isoquinolin-3-yl-7-(3-methoxyphenyl)ethynyl-chromen-4-one oxime]	< 1	248 to 251 °C
Cl.ON=c1cc(-c2cc3cccn3cn2)oc2ccc(OCCN3CCC(F)(F)C3)cc12 [Example 119, 6-[2-(3,3-difluoro-pyrrolidin-1-yl)-ethoxy]-2-pyrrolo[1,2-c]pyrimidin-3-yl-chromen-4-one oxime, hydrochloride]	< 1	> 230 °C (dec.)
COc1ccc2c(=NO)cc(-c3cc4ccccc4cn3)oc2c1 (mixture of isomers) [Example 56, 2-isoquinolin-3-yl-7-methoxy-chromen-4-one oxime]	< 5	246 to 248 °C
